Active and inactive are the calls of the source. No rule for the calls is given here.
Test system: CCRIS mutagenicity, Ames/micronucleus/aberration tests
Assay: CCRIS mutagenicity studies

Measured: mutagenic call

CS(C)=O
active: Test System: AMES SALMONELLA TYPHIMURIUM, Strain/Indicator: TA1537, Metabolic Activation: NONE, Method: PREINCUBATION (20 MIN) active; positive | Test System: AMES SALMONELLA TYPHIMURIUM, Strain/Indicator: TA1537, Metabolic Activation: NONE, Method: PREINCUBATION (20 OR 60 MIN) active; positive | Test System: AMES SALMONELLA TYPHIMURIUM, Strain/Indicator: TA1537, Metabolic Activation: RAT, LIVER, S-9, PHENOBARBITAL AND 5,6-BENZOFLAVONE, Method: PREINCUBATION (20 MIN) active; positive | Test System: AMES SALMONELLA TYPHIMURIUM, Strain/Indicator: TA2637, Metabolic Activation: NONE, Method: PREINCUBATION (20 MIN) active; positive | Test System: AMES SALMONELLA TYPHIMURIUM, Strain/Indicator: TA2637, Metabolic Activation: RAT, LIVER, S-9, PHENOBARBITAL AND 5,6-BENZOFLAVONE, Method: PREINCUBATION (20 MIN) active; positive | Test System: E. COLI, Strain/Indicator: WP2 UVRA, Metabolic Activation: NONE, Method: PREINCUBATION (20 MIN) active; positive | Test System: E. COLI, Strain/Indicator: WP2 UVRA, Metabolic Activation: NONE, Method: STANDARD PLATE active; positive | Test System: MOUSE LYMPHOMA, Strain/Indicator: L5178Y (TK+/TK-), Metabolic Activation: NONE, Method: SUSPENSION/PLATE active; positive
inactive: End Point: IN VITRO CHROMOSOMAL ABERRATIONS, Test System: CHO-LB CELLS, Metabolic Activation: NONE inactive; negative | End Point: IN VITRO CHROMOSOMAL ABERRATIONS, Test System: CHO-LB CELLS, Metabolic Activation: RAT, LIVER, S-9, AROCLOR 1254 inactive; negative | Test System: AMES SALMONELLA TYPHIMURIUM, Strain/Indicator: TA97, Metabolic Activation: HAMSTER, LIVER, S-9, AROCLOR 1254 (10 OR 30%), Method: PREINCUBATION inactive; negative | Test System: AMES SALMONELLA TYPHIMURIUM, Strain/Indicator: TA97, Metabolic Activation: NONE, Method: PREINCUBATION inactive; negative | Test System: AMES SALMONELLA TYPHIMURIUM, Strain/Indicator: TA97, Metabolic Activation: NONE, Method: PREINCUBATION (20 MIN) inactive; negative | Test System: AMES SALMONELLA TYPHIMURIUM, Strain/Indicator: TA97, Metabolic Activation: NONE, Method: STANDARD PLATE inactive; negative | Test System: AMES SALMONELLA TYPHIMURIUM, Strain/Indicator: TA97, Metabolic Activation: RAT, LIVER, S-9, AROCLOR 1254 (10 OR 30%), Method: PREINCUBATION inactive; negative | Test System: AMES SALMONELLA TYPHIMURIUM, Strain/Indicator: TA97, Metabolic Activation: RAT, LIVER, S-9, AROCLOR 1254, Method: STANDARD PLATE inactive; negative | Test System: AMES SALMONELLA TYPHIMURIUM, Strain/Indicator: TA97, Metabolic Activation: RAT, LIVER, S-9, PHENOBARBITAL AND 5,6-BENZOFLAVONE, Method: PREINCUBATION (20 MIN) inactive; negative | Test System: AMES SALMONELLA TYPHIMURIUM, Strain/Indicator: TA98, Metabolic Activation: HAMSTER, LIVER, S-9, AROCLOR 1254 (10 OR 30%), Method: PREINCUBATION inactive; negative | Test System: AMES SALMONELLA TYPHIMURIUM, Strain/Indicator: TA98, Metabolic Activation: NONE, Method: FLUCTUATION (MICROTITER) inactive; negative | Test System: AMES SALMONELLA TYPHIMURIUM, Strain/Indicator: TA98, Metabolic Activation: NONE, Method: PREINCUBATION inactive; negative | Test System: AMES SALMONELLA TYPHIMURIUM, Strain/Indicator: TA98, Metabolic Activation: NONE, Method: PREINCUBATION (20 MIN) inactive; negative | Test System: AMES SALMONELLA TYPHIMURIUM, Strain/Indicator: TA98, Metabolic Activation: NONE, Method: STANDARD PLATE inactive; negative | Test System: AMES SALMONELLA TYPHIMURIUM, Strain/Indicator: TA98, Metabolic Activation: RAT LIVER S-9, AROCLOR 1254, Method: FLUCTUATION (MICROTITER) inactive; negative | Test System: AMES SALMONELLA TYPHIMURIUM, Strain/Indicator: TA98, Metabolic Activation: RAT, LIVER, S-9, AROCLOR 1254 (10 OR 30%), Method: PREINCUBATION inactive; negative | Test System: AMES SALMONELLA TYPHIMURIUM, Strain/Indicator: TA98, Metabolic Activation: RAT, LIVER, S-9, AROCLOR 1254, Method: STANDARD PLATE inactive; negative | Test System: AMES SALMONELLA TYPHIMURIUM, Strain/Indicator: TA98, Metabolic Activation: RAT, LIVER, S-9, PHENOBARBITAL AND 5,6-BENZOFLAVONE, Method: PREINCUBATION (20 MIN) inactive; negative | Test System: AMES SALMONELLA TYPHIMURIUM, Strain/Indicator: TA100, Metabolic Activation: HAMSTER, LIVER, S-9, AROCLOR 1254 (10 OR 30%), Method: PREINCUBATION inactive; negative | Test System: AMES SALMONELLA TYPHIMURIUM, Strain/Indicator: TA100, Metabolic Activation: NONE, Method: PREINCUBATION inactive; negative | Test System: AMES SALMONELLA TYPHIMURIUM, Strain/Indicator: TA100, Metabolic Activation: NONE, Method: PREINCUBATION (20 MIN) inactive; negative | Test System: AMES SALMONELLA TYPHIMURIUM, Strain/Indicator: TA100, Metabolic Activation: NONE, Method: STANDARD PLATE inactive; negative | Test System: AMES SALMONELLA TYPHIMURIUM, Strain/Indicator: TA100, Metabolic Activation: RAT, LIVER, S-9, AROCLOR 1254 (10 OR 30%), Method: PREINCUBATION inactive; negative | Test System: AMES SALMONELLA TYPHIMURIUM, Strain/Indicator: TA100, Metabolic Activation: RAT, LIVER, S-9, AROCLOR 1254, Method: STANDARD PLATE inactive; negative | Test System: AMES SALMONELLA TYPHIMURIUM, Strain/Indicator: TA100, Metabolic Activation: RAT, LIVER, S-9, PHENOBARBITAL AND 5,6-BENZOFLAVONE, Method: PREINCUBATION (20 MIN) inactive; negative | Test System: AMES SALMONELLA TYPHIMURIUM, Strain/Indicator: TA102, Metabolic Activation: NONE, Method: PREINCUBATION (20 MIN) inactive; negative | Test System: AMES SALMONELLA TYPHIMURIUM, Strain/Indicator: TA102, Metabolic Activation: RAT, LIVER, S-9, PHENOBARBITAL AND 5,6-BENZOFLAVONE, Method: PREINCUBATION (20 MIN) inactive; negative | Test System: AMES SALMONELLA TYPHIMURIUM, Strain/Indicator: TA104, Metabolic Activation: NONE, Method: PREINCUBATION (20 MIN) inactive; negative | Test System: AMES SALMONELLA TYPHIMURIUM, Strain/Indicator: TA104, Metabolic Activation: RAT, LIVER, S-9, PHENOBARBITAL AND 5,6-BENZOFLAVONE, Method: PREINCUBATION (20 MIN) inactive; negative | Test System: AMES SALMONELLA TYPHIMURIUM, Strain/Indicator: TA1535, Metabolic Activation: HAMSTER, LIVER, S-9, AROCLOR 1254 (10 OR 30%), Method: PREINCUBATION inactive; negative | Test System: AMES SALMONELLA TYPHIMURIUM, Strain/Indicator: TA1535, Metabolic Activation: NONE, Method: PREINCUBATION inactive; negative | Test System: AMES SALMONELLA TYPHIMURIUM, Strain/Indicator: TA1535, Metabolic Activation: NONE, Method: PREINCUBATION (20 MIN) inactive; negative | Test System: AMES SALMONELLA TYPHIMURIUM, Strain/Indicator: TA1535, Metabolic Activation: RAT, LIVER, S-9, AROCLOR 1254 (10 OR 30%), Method: PREINCUBATION inactive; negative | Test System: AMES SALMONELLA TYPHIMURIUM, Strain/Indicator: TA1535, Metabolic Activation: RAT, LIVER, S-9, PHENOBARBITAL AND 5,6-BENZOFLAVONE, Method: PREINCUBATION (20 MIN) inactive; negative | Test System: AMES SALMONELLA TYPHIMURIUM, Strain/Indicator: TA1537, Metabolic Activation: HAMSTER, LIVER, S-9, AROCLOR 1254 (30%), Method: PREINCUBATION inactive; negative | Test System: AMES SALMONELLA TYPHIMURIUM, Strain/Indicator: TA1537, Metabolic Activation: NONE, Method: FLUCTUATION (MICROTITER) inactive; negative | Test System: AMES SALMONELLA TYPHIMURIUM, Strain/Indicator: TA1537, Metabolic Activation: NONE, Method: PREINCUBATION inactive; negative | Test System: AMES SALMONELLA TYPHIMURIUM, Strain/Indicator: TA1537, Metabolic Activation: NONE, Method: STANDARD PLATE inactive; negative | Test System: AMES SALMONELLA TYPHIMURIUM, Strain/Indicator: TA1537, Metabolic Activation: RAT LIVER S-9, AROCLOR 1254, Method: FLUCTUATION (MICROTITER) inactive; negative | Test System: AMES SALMONELLA TYPHIMURIUM, Strain/Indicator: TA1537, Metabolic Activation: RAT, LIVER, S-9, AROCLOR 1254 (30%), Method: PREINCUBATION inactive; negative | Test System: AMES SALMONELLA TYPHIMURIUM, Strain/Indicator: TA1538, Metabolic Activation: NONE, Method: PREINCUBATION (20 MIN) inactive; negative | Test System: AMES SALMONELLA TYPHIMURIUM, Strain/Indicator: TA1538, Metabolic Activation: RAT, LIVER, S-9, PHENOBARBITAL AND 5,6-BENZOFLAVONE, Method: PREINCUBATION (20 MIN) inactive; negative | Test System: AMES SALMONELLA TYPHIMURIUM, Strain/Indicator: TA7001, Metabolic Activation: NONE, Method: FLUCTUATION (MICROTITER) inactive; negative | Test System: AMES SALMONELLA TYPHIMURIUM, Strain/Indicator: TA7001, Metabolic Activation: RAT LIVER S-9, AROCLOR 1254, Method: FLUCTUATION (MICROTITER) inactive; negative | Test System: AMES SALMONELLA TYPHIMURIUM, Strain/Indicator: TA7002, Metabolic Activation: NONE, Method: FLUCTUATION (MICROTITER) inactive; negative | Test System: AMES SALMONELLA TYPHIMURIUM, Strain/Indicator: TA7002, Metabolic Activation: RAT LIVER S-9, AROCLOR 1254, Method: FLUCTUATION (MICROTITER) inactive; negative | Test System: AMES SALMONELLA TYPHIMURIUM, Strain/Indicator: TA7003, Metabolic Activation: NONE, Method: FLUCTUATION (MICROTITER) inactive; negative | Test System: AMES SALMONELLA TYPHIMURIUM, Strain/Indicator: TA7003, Metabolic Activation: RAT LIVER S-9, AROCLOR 1254, Method: FLUCTUATION (MICROTITER) inactive; negative | Test System: AMES SALMONELLA TYPHIMURIUM, Strain/Indicator: TA7004, Metabolic Activation: NONE, Method: FLUCTUATION (MICROTITER) inactive; negative | Test System: AMES SALMONELLA TYPHIMURIUM, Strain/Indicator: TA7004, Metabolic Activation: RAT LIVER S-9, AROCLOR 1254, Method: FLUCTUATION (MICROTITER) inactive; negative | Test System: AMES SALMONELLA TYPHIMURIUM, Strain/Indicator: TA7005, Metabolic Activation: NONE, Method: FLUCTUATION (MICROTITER) inactive; negative | Test System: AMES SALMONELLA TYPHIMURIUM, Strain/Indicator: TA7005, Metabolic Activation: RAT LIVER S-9, AROCLOR 1254, Method: FLUCTUATION (MICROTITER) inactive; negative | Test System: AMES SALMONELLA TYPHIMURIUM, Strain/Indicator: TA7006, Metabolic Activation: NONE, Method: FLUCTUATION (MICROTITER) inactive; negative | Test System: AMES SALMONELLA TYPHIMURIUM, Strain/Indicator: TA7006, Metabolic Activation: RAT LIVER S-9, AROCLOR 1254, Method: FLUCTUATION (MICROTITER) inactive; negative | Test System: E. COLI, Strain/Indicator: WP2, Metabolic Activation: NONE, Method: PREINCUBATION (20 OR 60 MIN) inactive; negative | Test System: E. COLI, Strain/Indicator: WP2, Metabolic Activation: NONE, Method: STANDARD PLATE inactive; negative | Test System: E. COLI, Strain/Indicator: WP2 UVRA, Metabolic Activation: NONE, Method: PREINCUBATION (60 MIN) inactive; negative

Reference: PubChem BioAssay AID1259407 (Chemical Carcinogenesis Research Information System (CCRIS), 2018)
